Assay [1] relates to EAE model. The note with it: 10 mg/kg starting at the time of immunization; cited from earlier work.
The target of assay [2] is T1, kappa opioid receptor (KOR) (Mus musculus, UniProt P33534).
T1 construct: from tissue; host or cells: whole animal: female C57BL/6 mice (EAE model)
In words: EAE with KOR antagonist norBNI. The assay is classed as in vivo, female C57BL/6 mice.

The nature of assay [3]: EAE-induced weight loss. The class given is in vivo, female C57BL/6 mice. The note with it: 0.3, 0.1 or 0.03 mg/kg i.p. daily from day 17.
Assay [4] concerns infiltrating immune cells (CD45high) in the brain. In words: Immune cell infiltration into the brain in EAE (flow cytometry). The assay is classed as in vivo, female C57BL/6 mice. For orientation: In flow cytometry, cells or beads pass a laser one at a time.
Assay [5] relates to myelin in spinal cord of EAE mice. In words: TEM of spinal cord sections in EAE. The class given is in vivo, female C57BL/6 mice. The note with it: 0.03 mg/kg i.p. daily from day 17; day 45.
The nature of assay [6]: Weight change in cuprizone model of demyelination. The class given is in vivo, female C57BL/6 mice.
The test system of assay [7] is cuprizone model of demyelination. In words: Rotarod assay in cuprizone model of demyelination. The class given is in vivo, female C57BL/6 mice. The note with it: 0.1 mg/kg i.p. daily from week 4. Background: In the rotarod test animals must keep their balance on a rotating rod.
Assay [8] concerns myelin in corpus callosum of cuprizone-treated mice. In words: TEM of corpus callosum in cuprizone model (g-ratio, myelinated axons, myelin area). The assay is classed as in vivo, female C57BL/6 mice.
Assay [9] concerns myelin in spinal cord of EAE mice. In words: Luxol fast blue staining of spinal cord in EAE. As to conditions: chronic phase. The assay is classed as in vivo, female C57BL/6 mice.
Assay [10] deals with lymphocyte populations in the spleen. In words: Splenocyte flow cytometry in chronic phase of EAE. The note with it: 0.01 mg/kg i.p. daily from disease onset; 27 days post treatment initiation. The assay is classed as in vivo, female C57BL/6 mice.
For assay [11], the system named is leucocyte infiltration into the spinal cord. In words: H&E staining of spinal cord for leucocyte infiltration in EAE. The class given is in vivo, female C57BL/6 mice. The note with it: 0.01 mg/kg i.p. daily from disease onset; chronic phase.
Assay [12] deals with activated GFAP+ astrocytes in the spinal cord. In words: GFAP immunohistochemistry of spinal cord in EAE. The note with it: 0.01 mg/kg i.p. daily from day 17; day 45. The assay is classed as in vivo, female C57BL/6 mice.
The subject of assay [13] is cuprizone demyelination disease model of MS. In words: von Frey mechanical withdrawal threshold in cuprizone model. As to conditions: 0.1 mg/kg/i.p. daily from day 28 or 35. The class given is in vivo, female C57BL/6 mice.
Assay [14] has as its system Substance P induced scratch. The note with it: cited from earlier work.
Assay [15] relates to Morphine induced scratch. As to conditions: SC; Winfuran assessment report EMA/CHMP/138212/2014; cited from earlier work.
Assay [16] has as its system Histamine induced scratch. The note with it: PO; Togashi et al. (2002); cited from earlier work.
Assay [17] relates to itch. As to conditions: in vivo; cited from earlier work.
[18] abbreviates: norBNI 10 mg/kg i.p. weekly with nalfurafine 0.01 mg/kg i.p. daily.
Setting [19] is: 0.1 mg/kg/i.p. daily from day 28, day 70.
The mark [20] stands for this setting: nalfurafine 0.1 mg/kg/i.p. or U-50488 1.6 mg/kg/i.p. daily from day 28, day 70.

Here are results for 3 molecules from patent US12318380B2, “Treatment of demyelinating diseases” (priority 2018, dated 2025).

Where a name gives a salt, the structure may show the parent alone. Read-outs that look alike come from different tables or passages of the source.

T1 sequence (P33534 whole entry): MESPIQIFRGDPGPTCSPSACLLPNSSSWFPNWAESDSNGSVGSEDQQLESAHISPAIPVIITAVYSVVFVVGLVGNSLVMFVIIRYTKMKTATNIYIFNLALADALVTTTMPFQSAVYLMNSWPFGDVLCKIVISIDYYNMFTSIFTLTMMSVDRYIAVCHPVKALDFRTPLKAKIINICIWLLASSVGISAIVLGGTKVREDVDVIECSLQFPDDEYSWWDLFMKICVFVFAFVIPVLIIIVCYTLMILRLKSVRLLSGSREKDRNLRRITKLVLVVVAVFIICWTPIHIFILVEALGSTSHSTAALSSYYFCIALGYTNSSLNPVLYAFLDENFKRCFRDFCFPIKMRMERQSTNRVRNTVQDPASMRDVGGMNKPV

For `CN1CCC[C@@H]1CCO[C@](C)(c1ccccc1)c1ccc(Cl)cc1` [clemastine fumarate], in [1], the “chronic disability in the EAE model” value is recorded as “has been shown to reduce chronic disability in the EAE model”.
Consider `Oc1ccc2c3c1O[C@H]1c4[nH]c5c(c4C[C@@]4(O)[C@@H](C2)N(CC2CC2)CC[C@]314)C[C@@]1(O)[C@H]2Cc3ccc(O)c4c3[C@@]1(CCN2CC1CC1)[C@H]5O4` [norBNI], for which, in assay [2] (setting [18]), the “disease score, full recovery (score <0.5)” value is “abolishes the ability of nalfurafine to enable full recovery from paralysis”; the “percentage recovered and number of days in recovery” value is “abolishes the ability of nalfurafine to enable and sustain recovery from paralysis”.
The term ED50 denotes the midpoint of the dose-response relation. Regarding `CN(C(=O)/C=C/c1ccoc1)[C@@H]1CC[C@@]2(O)[C@H]3Cc4ccc(O)c5c4[C@@]2(CCN3CC2CC2)[C@H]1O5` [nalfurafine, (E)-N-[(4R,4aS,7R,7aR,12bS)-3-(cyclopropylmethyl)-4a,9-dihydroxy-1,2,4,5,6,7,7a,13-octahydro-4,12-methanobenzofuro[3,2-e]isoquinoline-7-yl]-3-(furan-3-yl)-N-methylprop-2-enamide], in [3], the “% change in body weight” value is given as “mice recover from EAE-induced weight loss”. In assay [4] (0.03 mg/kg i.p. daily from day 17, day 45), the “number of infiltrating immune cells in brain (ratio to microglia)” value is reported as “significantly reduced the number of infiltrating immune cells”. The “number of infiltrating immune cells in brain (ratio to microglia)” value in assay [4] (0.03 and 0.01 mg/kg i.p. daily from disease onset, chronic phase (>24 days)) was “significantly reduced the number of infiltrating immune cells”. Further, the “myelination of nerve axons in spinal cord (TEM)” value in [5] is “nerve axons appear healthy and well-myelinated”. In addition, the “% weight change” value in assay [6] (0.3% cuprizone 5 weeks, 0.1 mg/kg i.p. daily from week 4, 65 days (Example 7)) was “reversed significantly more effectively by administration of nalfurafine than vehicle alone”. Also, the “% weight change in recovery phase” value in [6] (0.3% cuprizone 35 days, nalfurafine 0.1 mg/kg or U-50488 1.6 mg/kg i.p. daily from day 28 (Example 28)) was “enhances recovery of the lost weight faster”. Moreover, the “rotarod performance at week 9 relative to week 5” value in [7] was “Cuprizone-induced disability was reversed”. For the same molecule, the “myelin in corpus callosum (TEM)” value in [8] (0.1 mg/kg i.p. daily from week 4, day 65 (Example 9)) was “more myelin was detected, and the structure was less disorganized”. Moreover, in [8] (setting [19]), the area of myelination result is on record as “percentage increase in area of myelination” and the “number of myelinated axons” value is “percentage increase in the number of myelinated axons”. In assay [8] (setting [20]), the “axonal-myelin ultrastructure, repair” value was “surprisingly similar to that of the naïve (normal) tissue” and the mean g-ratio was found to be 0.75±0.15. In assay [9] (0.01 mg/kg i.p. daily from disease onset), the “lesion load and myelin density in ventral horn (luxol fast blue)” value is “reduces this lesion load and demyelination”. Moreover, the “% demyelination of spinal cord (luxol fast blue)” value in assay [9] (0.03 or 0.01 mg/kg i.p. daily from disease onset) is listed as “significant reduction in the percentage of demyelination”. For the same molecule, in [10], the “Teff:cm ratio (effector to central memory CD4 T cells)” value is “reduced ratio in the nalfurafine-treated compared to the vehicle-treated mice”; the “overall number of CD4 T cells in spleen” value was “the same between nalfurafine and vehicle treated mice”; the “proportion of major lymphocyte populations in spleen (% live leukocytes)” value is given as “do not alter the proportion of the major lymphocyte populations in the spleen”. Moreover, in [2] (nalfurafine 0.01 mg/kg i.p. daily with norBNI 10 mg/kg i.p. weekly), the “disease reduction in the presence of norBNI” value was “effective at reducing disease independently of the KOR”. Besides, the “leucocyte infiltration score (0-3), H&E” value in [11] is on record as “surprising reduction of infiltrating leucocytes”. Moreover, the “number of activated GFAP+ astrocytes per section” value in assay [12] is on record as “significantly reduces the number of activated astrocytes”. Moreover, in assay [13], the “mechanical threshold scores vs vehicle” value is given as “improved mechanical threshold scores compared to vehicle treated mice” and the “mechanical withdrawal threshold, pre vs post treatment” value is on record as “reduced to baseline levels”. The “Complete Inhibition” value in [14] (IV, Winfuran assessment report EMA/CHMP/138212/2014) was 7.5-10^ μg/kg. Moreover, the “Inhibition printed in brackets beside the dose” value in assay [14] (PO, 100 μg/kg, Winfuran assessment report EMA/CHMP/138212/2014) is 66%. The “Complete Inhibition” value in assay [14] (PO, Togashi et al. (2002)) was 100 µg/kg. For the same molecule, in assay [14] (PO, Winfuran assessment report EMA/CHMP/138212/2014), the “Complete Inhibition” value was 100 µg/kg. Besides, the “Complete Inhibition” value in assay [14] (SC, Winfuran assessment report EMA/CHMP/138212/2014) was 10 µg/kg. In addition, the “Complete Inhibition” value in [15] is 5 to 10 µg/kg. Moreover, the ED50 in assay [16] is 7.3 µg/kg. For the same molecule, the “effective dose in humans for itch” value in [17] is 2.5 μg/body/day.
